Experimental data as given in patent US6083496A, “Polyamine transport inhibitors” (priority 1996, dated 2000).

Assays:
[1] = secondary amino group of the spermine head; cited from earlier work
polyamine transporter [2] = settings: ZR-75-1 cells; compound as its own substrate; read-out: Km, spermine transport; cited from earlier work
polyamine transporter [3] = test: Putrescine uptake ([3H]putrescine) in ZR-75-1 cells; format: cell-based, human; settings: FIG. 3
Experimental: (§1) J. Biol. […] Endocrinology 126: 3223-3231). […] Cell cultures were then washed twice with 1 ml PBS containing 5.7 mM sym-norspermidine. Cells were then lysed with 200-μl aliquot of 1 N NaOH and incubated for 30 minutes at 60° C. After neutralization with 200 μl of 1 N HCl, radioactivity was determined from a 250-μl of the cell lysate by scintillation counting. Uptake activity was expressed per amount of total cellular protein as determined by the method of Bradford (Bradford, M. M. 1976. Anal. Biochem. 72: 248-254). Non-specific binding of radioactive substrate was similarly determined in parallel for both cell lines after a 15 second-incubation with 400 μl of ice-cold uptake solution. […] Km, Ki and Vmax values were then estimated by Line-weaver-Burke analysis. For competitive inhibitors, Ki values were also estimated by measuring uptake activity in the presence of logarithmically increasing concentrations of antagonist, and using the Cheng-Prusoff equation (Cheng. Y. -C. and Prusoff, W. H. 1973. Biochem. Pharmacol. 22: 3099-3108) by iterative curve fitting for a sigmoidal curve. For mixed competitive/noncompetitive inhibition, two methods were used to calculate kinetic constants. […] C. 1976. Enzymes, 3rd Ed., Academic Press, San Diego, Calif.). […] C. 1976. Enzymes, 3rd Ed., Academic Press, San Diego, Calif.).

polyamine transporter [4] = test: Spermidine uptake ([3H]spermidine) in ZR-75-1 cells; format: cell-based, human; settings: FIG. 3
Experimental: as §1

ZR-75-1 cells = test: Effect of inhibitors on cell proliferation (11 days, DNA content); format: cell-based, human; settings: 11 days
Experimental: Effect of Inhibitors on Cell Proliferation--For growth studies, ZR-75-1 cells were cultured in MEZR medium or in phenol red-free RPMI 1640 supplemented with 2 mM L-glutamine, 1 mM sodium pyruvate, 15 mM Hepes, antibiotics, 1 nM 17β-estradiol, 0.5 μg of bovine insulin per ml and 5% (v/v) charcoal-treated fetal bovine serum (SD medium), as indicated in the text. […] M. L. 1989. in The Physiology of Polyamines (Bachrach, U., and Helmer, Y. M. eds) Vol. I, pp. 203-229, CRC Press, Boca Raton). […] Endocrinology 126: 3223-3231). Medium was changed every other day in these experiments because of the slow reaction of the compound with an unknown component present in the IMEM and RPMI 1640 medium formulation.

Question: Which results are given for `NCCCNCCCCNCCCN` [Spermine, N,N'-bis-[3-aminopropyl]-1,4-butane-diamine, reference compound]?
Answer: pKa [1]: 8.9-9.8; Km (polyamine transporter [2]): 0.2 ± 0.06 µM; Ability to compete against [3H]putrescine uptake, fold higher than that of DESC (polyamine transporter [3]): about 7 fold; Ability to compete against [3H]spermidine uptake, fold higher than that of DESC (polyamine transporter [4]): about 7 fold; Effect on cell growth (ZR-75-1 cells; 50 μM): acutely cytotoxic; Influence of 1 mM aminoguanidine on the growth effect of the compound (ZR-75-1 cells; spermine 50 μM, MESC 200 μM, DEASC 50 μM): only partly prevented by aminoguanidine
